Source: patent US9375004B2 (Bayer Intellectual Property GmbH, priority 2010, dated 2016)
Like-named read-outs stand apart in the source and are kept apart here.

Columns and labels:
Pyricularia oryzae = type: in vivo
[1] = logP by HPLC on reversed-phase column (EEC Directive 79/831 Annex V.A8); settings: HPLC on reversed-phase column (C 18), EEC Directive 79/831 Annex V.A8
Venturia inaequalis = assay: Venturia test (apples)/preventive; settings: 100 ppm, preventive, evaluated 10 days after inoculation
Rhizoctonia solani = assay: Rhizoctonia test (rice)/protective; type: in vivo; settings: 250 ppm, protective, evaluated 4 days after inoculation
Protocol: Rhizoctonia Test (Rice)/Protective
Solvent: 28.5 parts by weight of acetone
Emulsifier: 1.5 part by weight of alkylaryl polyglycol ether
1 day after the treatment, the plants are inoculated with hyphae of Rhizoctonia solani.
Evaluation is carried out 4 days after the inoculation.

Puccinia triticina = assay: Puccinia triticina-test (wheat)/preventive; type: in vivo; settings: 500 ppm, preventive, evaluated 8 days after inoculation
Pyrenophora teres = assay: Pyrenophora teres-test (barley)/preventive; type: in vivo; settings: 500 ppm, preventive, evaluated 8 days after inoculation
Uromyces appendiculatus = settings: 100 ppm, beans, preventive, evaluated 10 days after inoculation
Botrytis cinerea = assay: Botrytis test (beans)/preventive; settings: 100 ppm, preventive, lesion size 2 days after inoculation
Sphaerotheca fuliginea = assay: Sphaerotheca test (cucumber)/preventive; type: in vivo; settings: 500 ppm, preventive, evaluated 7 days after inoculation
Septoria tritici = assay: Septoria tritici-test (wheat)/preventive; type: in vivo; settings: 500 ppm, preventive, evaluated 21 days after inoculation
Alternaria solani = assay: Alternaria test (tomato)/preventive; type: in vivo; settings: 500 ppm, preventive, evaluated 7 days after inoculation
[2] = system: Fusarium nivale (var. majus); assay: Fusarium nivale (var. majus)-test (wheat)/preventive; settings: for Efficacy: preventive, evaluated 5 days after inoculation
Protocol: Fusarium Nivale (Var. Majus)-Test (Wheat)/Preventive
Solvent: 49 parts by weight of N,N-dimethylacetamide
Emulsifier: 1 part by weight of alkylaryl polyglycol ether
After the spray coating has been dried, the plants are slightly injured by using a sandblast and afterwards they are sprayed with a conidia suspension of Fusarium nivale (var. majus).
The plants are placed in the greenhouse under a translucent incubation cabinet at a temperature of approximately 10° C. and a relative atmospheric humidity of approximately 100%.
The test is evaluated 5 days after the inoculation.

Cochliobolus miyabeanus = assay: Cochliobolus test (rice)/protective; type: in vivo; settings: 250 ppm, protective, evaluated 4 days after inoculation

| SMILES | Efficacy (Pyricularia oryzae; 100 ppm, rice, protective, evaluated 5 days after inoculation) [%] | Efficacy (Pyricularia oryzae; 250 ppm, rice, protective, evaluated 5 days after inoculation) [%] | protection (Pyricularia oryzae; dose of 100 ppm and 250 ppm of active ingredient, rice) | logP [1] | Efficacy (Venturia inaequalis) [%] | Efficacy (Rhizoctonia solani) [%] | Efficacy (Puccinia triticina) [%] | Efficacy (Pyrenophora teres) [%] | Efficacy (Uromyces appendiculatus) [%] | Efficacy (Botrytis cinerea) [%] | Efficacy (Sphaerotheca fuliginea) [%] | Efficacy (Septoria tritici) [%] | Efficacy (Alternaria solani) [%] | Efficacy ([2]; 250 ppm) [%] | Efficacy ([2]; 500 ppm) [%] | protection ([2]; dose of 250 ppm and 500 ppm of active ingredient) | Efficacy (Pyricularia oryzae; in vivo) [%] | Efficacy (Cochliobolus miyabeanus) [%] |
| --- | --- | --- | --- | --- | --- | --- | --- | --- | --- | --- | --- | --- | --- | --- | --- | --- | --- | --- |
| Cn1cc(C(=O)Nc2ccc(F)cc2-c2ccc(Cl)c(Cl)c2)c(C(F)F)n1 [11 from WO-2003/070705, N-(3′,4′-dichloro-5-fluorobiphenyl-2-yl)-3-(difluoromethyl)-1-methyl-1H-pyrazole-4-carboxamide, reference compound] | 20 | 80 | poor (less than 20%) protection to good (at least 70%) protection | – | – | – | – | – | – | – | – | – | – | – | – | – | – | – |
| CC(C)CC(C)c1ccccc1NC(=O)c1c(C(F)F)nn(C)c1F (stereo not shown) [Example 11] | – | – | – | 3.85 | 100 | 100 | 100 | 100 | 100 | 95 | 100 | 89 | 100 | – | – | – | – | – |
| CCCCCc1ccccc1NC(=O)c1c(C(F)F)nn(C)c1Cl [Example 12] | – | – | – | 4.01 | 100 | 100 | 100 | 100 | 100 | 99 | – | 71 | – | 71 | 86 | at least 70% | 93 | – |
| CC(CC(C)(C)C)c1ccccc1NC(=O)c1c(C(F)F)nn(C)c1Cl (stereo not shown) [Example 22] | – | – | – | 4.31 | 100 | 100 | 100 | 100 | 100 | 100 | – | – | – | – | 86 | – | 80 | – |
| Cn1nc(C(F)F)c(C(=O)Nc2ccccc2CC[Si](C)(C)C)c1Cl [Example 24] | – | – | – | 4.36 | 100 | 100 | 100 | 86 | 100 | 78 | – | – | – | – | 86 | – | 98 | – |
| Cn1nc(C(F)F)c(C(=O)Nc2ccccc2-c2cccc(Cl)c2)c1F [Example 86] | – | – | – | 3.55 | 100 | – | 100 | 100 | 100 | 100 | – | 86 | 95 | – | 71 | – | – | – |
| Cn1nc(C(F)F)c(C(=O)Nc2ccccc2-c2ccc(Cl)c(F)c2)c1F [Example 100] | – | – | – | 3.45 | 99 | – | 100 | 100 | 99 | 99 | 100 | 100 | 80 | – | 90 | – | – | – |
| Cn1nc(C(F)F)c(C(=O)Nc2ccc(F)cc2-c2ccc(C(F)(F)F)cc2)c1F [Example 118] | – | – | – | 3.60 | 100 | – | 100 | 100 | 95 | 100 | 100 | 86 | 100 | – | 71 | – | – | – |
| Cn1nc(C(F)F)c(C(=O)Nc2ccccc2-c2ccc(C(F)(F)F)c(F)c2)c1F [Example 149] | – | – | – | 3.46 | 100 | – | 100 | 100 | 100 | 99 | 100 | 100 | 100 | – | 93 | – | – | – |
| Cn1nc(C(F)F)c(C(=O)Nc2ccccc2-c2ccc(Br)c(Cl)c2)c1Cl [Example 153] | – | – | – | 4.19 | 95 | – | 100 | 100 | 100 | 75 | 100 | 86 | 90 | – | 93 | – | – | – |
| CC(C)OCc1cccc(NC(=O)c2c(C(F)F)nn(C)c2F)c1 [Example 166] | – | – | – | 2.72 | – | – | – | – | – | – | – | – | – | – | – | – | – | 80 |
